Legend:
Mus musculus [1] = assay: Acquisition time in (R)-PIA) induced avoidance test (performed in mice) for antagonistic activity after p.o. administration of 0.31 mg/kg; type: functional; details: route oral
Mus musculus [2] = assay: Retention time in (R)-PIA) induced avoidance test (performed in mice) for antagonistic activity after peroral administration of 1.25 mg/kg; type: functional, organism-based; design: dose 1.25 mg/kg
Rattus norvegicus [3] = assay: Acquisition time in Scopolamine induced avoidance test (performed in rat) for antagonistic activity after peroral administration of 1.25 mg/kg; type: functional; details: route oral
Mus musculus [4] = assay: Retention time in (R)-PIA) induced avoidance test (performed in mice) for antagonistic activity after peroral administration of 5 mg/kg; type: functional, organism-based; design: dose 5 mg/kg
Mus musculus [5] = assay: Acquisition time in (R)-PIA) induced avoidance test (performed in mice) for antagonistic activity after peroral administration of 0.08 mg/kg; type: functional; details: route oral
Mus musculus [6] = assay: Tested for locomotor activity after oral administration of 10 mg/kg for 120 min; type: functional
Rattus norvegicus [7] = assay: Retention time in Scopolamine induced avoidance test (performed in rat) for antagonistic activity after peroral administration of 5 mg/kg (n=15); type: functional, organism-based; design: dose 5 mg/kg
Rattus norvegicus [8] = assay: Acquisition time in Scopolamine induced avoidance test (performed in rat) for antagonistic activity after peroral administration of 0.02 mg/kg; type: functional; details: route oral
Mus musculus [9] = assay: Retention time in (R)-PIA) induced avoidance test (performed in mice) for antagonistic activity after peroral administration of 0.31 mg/kg; type: functional, organism-based; design: dose 0.31 mg/kg
Rattus norvegicus [10] = assay: Acquisition time in Scopolamine induced avoidance test (performed in rat) for antagonistic activity after peroral administration of 0.08 mg/kg; type: functional; details: route oral
Mus musculus [11] = assay: Tested for locomotor activity after oral administration of […] for 120 min; type: functional
Rattus norvegicus [12] = assay: Retention time in Scopolamine induced avoidance test (performed in rat) for antagonistic activity after p.o. administration of 0.31 mg/kg; type: functional, organism-based; design: dose 0.31 mg/kg
Mus musculus [13] = assay: Acquisition time in (R)-PIA) induced avoidance test (performed in mice) for antagonistic activity after peroral administration of 1.25 mg/kg; type: functional; details: route oral
Rattus norvegicus [14] = assay: Acquisition time in Scopolamine induced avoidance test (performed in rat) for antagonistic activity after p.o. administration of 0.31 mg/kg; type: functional; details: route oral
Rattus norvegicus [15] = assay: Retention time in Scopolamine induced avoidance test (performed in rat) for antagonistic activity after p.o. administration of 0.08 mg/kg; type: functional, organism-based; design: dose 0.08 mg/kg
Rattus norvegicus [16] = assay: Acquisition time in Scopolamine induced avoidance test (performed in rat) for antagonistic activity after peroral administration of 5 mg/kg; type: functional; details: route oral
Mus musculus [17] = assay: Acquisition time in (R)-PIA) induced avoidance test (performed in mice) for antagonistic activity after peroral administration of 5 mg/kg; type: functional; details: route oral
Mus musculus [18] = assay: Retention time in (R)-PIA) induced avoidance test (performed in mice) for antagonistic activity after peroral administration of 0.02 mg/kg; type: functional, organism-based; design: dose 0.02 mg/kg
Rattus norvegicus [19] = assay: Retention time in Scopolamine induced avoidance test (performed in rat) for antagonistic activity after peroral administration of 0.02 mg/kg; type: functional, organism-based; design: dose 0.02 mg/kg
Mus musculus [20] = assay: Acquisition time in (R)-PIA) induced avoidance test (performed in mice) for antagonistic activity after peroral administration of 0.02 mg/kg; type: functional; details: route oral
Mus musculus [21] = assay: Tested for locomotor activity after oral administration of 5 mg/kg for 120 min; type: functional
Mus musculus [22] = assay: Retention time in (R)-PIA) induced avoidance test (performed in mice) for antagonistic activity after peroral administration of 0.08 mg/kg; type: functional, organism-based; design: dose 0.08 mg/kg
Mus musculus [23] = assay: Acquisition time in (R)-PIA) induced avoidance test (performed in mice) for antagonistic activity after peroral administration of 0.31 mg/kg (n=15); type: functional; details: route oral
Mus musculus [24] = assay: Acquisition time in (R)-PIA) induced avoidance test (performed in mice) for antagonistic activity after peroral administration of 1.25 mg/kg (n=15); type: functional; details: route oral
Rattus norvegicus [25] = assay: Retention time in Scopolamine induced avoidance test (performed in rat) for antagonistic activity after peroral administration of 0.02 mg/kg (n=18) (P<0.05); type: functional, organism-based; design: dose 0.02 mg/kg
Rattus norvegicus [26] = assay: Acquisition time in Scopolamine induced avoidance test (performed in rat) for antagonistic activity after peroral administration of 0.02 mg/kg (n=18); type: functional; details: route oral
Rattus norvegicus [27] = assay: Retention time in Scopolamine induced avoidance test (performed in rat) for antagonistic activity after peroral administration of 5 mg/kg (n=18) (P<0.05); type: functional, organism-based; design: dose 5 mg/kg
Mus musculus [28] = assay: Retention time in (R)-PIA) induced avoidance test (performed in mice) for antagonistic activity after peroral administration of 1.25 mg/kg (n=15) (P<0.005); type: functional, organism-based; design: dose 1.25 mg/kg
Mus musculus [29] = assay: Acquisition time in (R)-PIA) induced avoidance test (performed in mice) for antagonistic activity after peroral administration of 5 mg/kg (n=15); type: functional; details: route oral
Mus musculus [30] = assay: Retention time in (R)-PIA) induced avoidance test (performed in mice) for antagonistic activity after peroral administration of 20 mg/kg (n=15) (P<0.05); type: functional, organism-based; design: dose 20 mg/kg
Rattus norvegicus [31] = assay: Acquisition time in Scopolamine induced avoidance test (performed in rat) for antagonistic activity after peroral administration of 0.08 mg/kg (n=18); type: functional; details: route oral
Rattus norvegicus [32] = assay: Retention time in Scopolamine induced avoidance test (performed in rat) for antagonistic activity after peroral administration of 0.08 mg/kg (n=18) (P<0.05); type: functional, organism-based; design: dose 0.08 mg/kg
Rattus norvegicus [33] = assay: Retention time in Scopolamine induced avoidance test (performed in rat) for antagonistic activity after peroral administration of 0.31 mg/kg (n=18) (P<0.005); type: functional, organism-based; design: dose 0.31 mg/kg
Rattus norvegicus [34] = assay: Retention time in Scopolamine induced avoidance test (performed in […]) for antagonistic activity after peroral administration of 1.25 mg/kg (n=18) (P<0.05); type: functional, organism-based; design: dose 1.25 mg/kg
Mus musculus [35] = assay: Retention time in (R)-PIA) induced avoidance test (performed in mice) for antagonistic activity after peroral administration of 0.08 mg/kg (n=15) (P<0.005); type: functional, organism-based; design: dose 0.08 mg/kg
Rattus norvegicus [36] = assay: Acquisition time in Scopolamine induced avoidance test (performed in rat) for antagonistic activity after peroral administration of 1.25 mg/kg (n=18); type: functional; details: route oral
Rattus norvegicus [37] = assay: Acquisition time in Scopolamine induced avoidance test (performed in rat) for antagonistic activity after peroral administration of 5 mg/kg (n=18); type: functional; details: route oral
Rattus norvegicus [38] = assay: Acquisition time in Scopolamine induced avoidance test (performed in rat) for antagonistic activity after peroral administration of 0.31 mg/kg (n=18); type: functional; details: route oral
Mus musculus [39] = assay: Retention time in (R)-PIA) induced avoidance test (performed in mice) for antagonistic activity after peroral administration of 0.31 mg/kg (n=15) (P<0.01); type: functional, organism-based; design: dose 0.31 mg/kg
Mus musculus [40] = assay: Acquisition time in (R)-PIA) induced avoidance test (performed in mice) for antagonistic activity after peroral administration of 0.08 mg/kg (n=15); type: functional; details: route oral
Rattus norvegicus [41] = assay: Retention time in Scopolamine induced avoidance test (performed in rat) for antagonistic activity after peroral administration of 1.25 mg/kg; type: functional, organism-based; design: dose 1.25 mg/kg
Rattus norvegicus [42] = assay: Retention time in Scopolamine induced avoidance test (performed in […]) for antagonistic activity after peroral administration of 5 mg/kg; type: functional, organism-based; design: dose 5 mg/kg
Mus musculus [43] = assay: etention time in (R)-PIA) induced avoidance test (performed in mice) for antagonistic activity after peroral administration of 0.31 mg/kg; type: functional, organism-based; design: dose 0.31 mg/kg
Rattus norvegicus [44] = assay: Retention time in Scopolamine induced avoidance test (performed in rat) for antagonistic activity after peroral administration of 20 mg/kg; type: functional, organism-based; design: dose 20 mg/kg
Rattus norvegicus [45] = assay: Acquisition time in Scopolamine induced avoidance test (performed in rat) for antagonistic activity after p.o. administration of 5 mg/kg; type: functional; details: route oral
Mus musculus [46] = assay: Acquisition time in (R)-PIA) induced avoidance test (performed in mice) for antagonistic activity after peroral administration of 0.02 mg/kg; details: route oral
Mus musculus [47] = assay: Acquisition time in (R)-PIA) induced avoidance test (performed in mice) for antagonistic activity after p.o. administration of 1.25 mg/kg; type: functional; details: route oral
Mus musculus [48] = assay: Retention time in (R)-PIA) induced avoidance test (performed in mice) for antagonistic activity after peroral administration of 0.02 mg/kg
Mus musculus [49] = assay: Retention time in (R)-PIA) induced avoidance test (performed in mice) for antagonistic activity after p.o. administration of 1.25 mg/kg; type: functional, organism-based; design: dose 1.25 mg/kg
Rattus norvegicus [50] = assay: Acquisition time in Scopolamine induced avoidance test (performed in rat) for antagonistic activity after peroral administration of 20 mg/kg; type: functional; details: route oral
Rattus norvegicus [51] = assay: Acquisition time in Scopolamine induced avoidance test (performed in rat) for antagonistic activity after p.o. administration of 0.08 mg/kg; type: functional; details: route oral
Rattus norvegicus [52] = assay: Retention time in Scopolamine induced avoidance test (performed in rat) for antagonistic activity after peroral administration of 0.08 mg/kg; type: functional, organism-based; design: dose 0.08 mg/kg

CCCn1c(=O)c2nc(C(C3CC3)C3CC3)[nH]c2n(CCC)c1=O
Acquisition time (Mus musculus [1]): 21.7 s
Retention time (Mus musculus [2]): 262 s
Acquisition time (Rattus norvegicus [3]): 20.4 s
Retention time (Mus musculus [4]): 248 s
Acquisition time (Mus musculus [5]): 46.5 s
Locomotor activity (Mus musculus [6]): 5371 Counts
Retention time (Rattus norvegicus [7]): 120 s
Acquisition time (Rattus norvegicus [8]): 29.9 s
Retention time (Mus musculus [9]): 140 s
Acquisition time (Rattus norvegicus [10]): 19.3 s
Locomotor activity (Mus musculus [11]): 4365 Counts
Retention time (Rattus norvegicus [12]): 218 s
Acquisition time (Mus musculus [13]): 22.7 s
Acquisition time (Rattus norvegicus [14]): 15.6 s
Retention time (Rattus norvegicus [15]): 54.1 s
Acquisition time (Rattus norvegicus [16]): 14.7 s
Acquisition time (Mus musculus [17]): 28.1 s
Retention time (Mus musculus [18]): 51.3 s
Retention time (Rattus norvegicus [19]): 48.8 s
Acquisition time (Mus musculus [20]): 32.9 s
Locomotor activity (Mus musculus [21]): 5631 Counts
Retention time (Mus musculus [22]): 83.9 s

CCCn1c(=O)c2nc(C3CCC(=O)C3)[nH]c2n(CCC)c1=O (stereo not given)
Acquisition time (Mus musculus [23]): 22 s
Acquisition time (Mus musculus [24]): 15.1 s
Locomotor activity (Mus musculus [6]): 8204 Counts
Retention time (Rattus norvegicus [25]): 169 s
Acquisition time (Rattus norvegicus [26]): 16.4 s
Retention time (Rattus norvegicus [27]): 75.9 s
Retention time (Mus musculus [28]): 339 s
Acquisition time (Mus musculus [29]): 15.1 s
Locomotor activity (Mus musculus [11]): 6134 Counts
Retention time (Mus musculus [30]): 319 s
Acquisition time (Rattus norvegicus [31]): 12.8 s
Retention time (Rattus norvegicus [32]): 126 s
Retention time (Rattus norvegicus [33]): 163 s
Retention time (Rattus norvegicus [34]): 85.9 s
Retention time (Mus musculus [35]): 322 s
Acquisition time (Rattus norvegicus [36]): 11.4 s
Acquisition time (Rattus norvegicus [37]): 9.8 s
Acquisition time (Rattus norvegicus [38]): 13.2 s
Retention time (Mus musculus [39]): 234 s
Acquisition time (Mus musculus [40]): 20.8 s

CCCN1C(=O)N2C[C@H](CC)N=C2c2[nH]c(C34CC5CC(CC3C5)C4)nc21
Retention time (Rattus norvegicus [41]): 20.3 s
Acquisition time (Mus musculus [1]): 22.9 s
Acquisition time (Rattus norvegicus [3]): 15.1 s
Retention time (Mus musculus [4]): 431 s
Acquisition time (Mus musculus [5]): 13.4 s
Retention time (Rattus norvegicus [42]): 13.3 s
Retention time (Mus musculus [43]): 489 s
Retention time (Rattus norvegicus [44]): 19.6 s
Retention time (Rattus norvegicus [12]): 81.3 s
Acquisition time (Rattus norvegicus [45]): 14 s
Acquisition time (Rattus norvegicus [14]): 10.9 s
Retention time (Rattus norvegicus [15]): 40.7 s
Acquisition time (Mus musculus [46]): 14.3 s
Acquisition time (Mus musculus [47]): 14.3 s
Retention time (Mus musculus [48]): 109 s
Acquisition time (Mus musculus [17]): 12.9 s
Retention time (Mus musculus [49]): 351 s
Retention time (Mus musculus [22]): 464 s
Acquisition time (Rattus norvegicus [50]): 7 s
Acquisition time (Rattus norvegicus [51]): 8 s

Cn1c(=O)c2[nH]cnc2n(C)c1=O
Retention time (Rattus norvegicus [41]): 10.9 s
Retention time (Mus musculus [2]): 166 s
Retention time (Mus musculus [4]): 104 s
Retention time (Rattus norvegicus [52]): 45.8 s
Retention time (Mus musculus [9]): 113 s
Retention time (Rattus norvegicus [44]): 14.6 s
Retention time (Rattus norvegicus [12]): 31.2 s
Retention time (Mus musculus [22]): 85.4 s
